According to ChEMBL document CHEMBL1145340, “Potential lead for an Alzheimer drug: a peptide that blocks intermolecular interaction and amyloid beta protein-induced cytotoxicity” (J Med Chem, 2006):
Active and inactive are the calls of the source. The rule behind the calls is not given here. Peptide text beside a SMILES is read from it.

What was measured:
[1] = system: PC-12; assay: Protection against beta amyloid 42-induced neurotoxicity in rat PC12 cells by MTT reduction assay; type: functional, cell-based
[2] = molecular target: Amyloid-beta precursor protein (Homo sapiens) (UniProt P05067); assay: Binding affinity to beta amyloid 42 at 10 uM to 100 uM by ELISA
[3] = system: PC-12; assay: Neutralizing activity against beta amyloid 42-induced cytotoxicity in rat PC12 cells at 100 uM by MTT reduction assay; type: functional, cell-based
[4] = molecular target: Amyloid-beta precursor protein (Homo sapiens) (UniProt P05067); assay: Binding affinity to beta amyloid 42 by ELISA
[5] = molecular target: Amyloid-beta precursor protein (Homo sapiens) (UniProt P05067); assay: Inhibition of self-aggregation of beta amyloid 42 by thioflavin T assay; type: functional

Sequence of Amyloid-beta precursor protein (Homo sapiens) (P05067 whole entry): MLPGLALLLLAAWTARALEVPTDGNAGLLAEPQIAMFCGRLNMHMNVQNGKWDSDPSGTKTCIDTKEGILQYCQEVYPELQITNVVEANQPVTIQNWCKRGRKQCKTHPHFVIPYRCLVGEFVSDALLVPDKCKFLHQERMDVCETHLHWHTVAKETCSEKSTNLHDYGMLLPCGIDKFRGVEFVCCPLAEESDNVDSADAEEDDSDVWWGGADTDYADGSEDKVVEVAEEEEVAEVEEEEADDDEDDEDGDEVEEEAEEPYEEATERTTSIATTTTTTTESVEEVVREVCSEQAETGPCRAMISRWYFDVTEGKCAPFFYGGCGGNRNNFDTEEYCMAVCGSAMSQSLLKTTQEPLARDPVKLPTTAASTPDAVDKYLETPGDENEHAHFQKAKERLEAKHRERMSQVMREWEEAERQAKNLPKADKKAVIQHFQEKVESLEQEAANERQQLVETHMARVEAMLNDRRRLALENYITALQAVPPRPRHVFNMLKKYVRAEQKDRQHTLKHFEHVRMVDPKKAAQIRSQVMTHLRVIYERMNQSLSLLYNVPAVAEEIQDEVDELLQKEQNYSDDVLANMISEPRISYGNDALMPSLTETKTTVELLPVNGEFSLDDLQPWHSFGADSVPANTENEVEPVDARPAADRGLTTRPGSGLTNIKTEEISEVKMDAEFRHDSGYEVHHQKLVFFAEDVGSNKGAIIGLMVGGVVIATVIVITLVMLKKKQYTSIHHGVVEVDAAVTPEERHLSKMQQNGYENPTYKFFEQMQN

Row | Compound | Activity [1] | further results
1 | H-IFCKE-OH | inactive | 
2 | H-HESNDCTFVRT-OH |  | Activity [2]: Active; Activity [3]: inactive
3 | CC(C)[C@H](NC(=O)[C@H](Cc1ccccc1)NC(=O)[C@@H](N)[C@H](C)O)C(=O)N[C@@H](CCCN=C(N)N)C(=O)N[C@H](C(=O)O)[C@H](C)O | inactive | 
4 | H-FVRTH-OH | inactive | 
5 | CC(C)[C@H](NC(=O)[C@H](Cc1ccccc1)NC(=O)[C@@H](NC(=O)[C@@H](N)CS)[C@H](C)O)C(=O)N[C@@H](CCCN=C(N)N)C(=O)O | inactive | Activity [4]: Active
6 | H-THIFC-OH | inactive | 
7 | H-CKEHQ-OH | inactive | 
8 | H-VRTHI-OH | inactive | 
9 | CC[C@H](C)[C@H](NC(=O)[C@H](Cc1c[nH]cn1)NC(=O)[C@@H](NC(=O)[C@H](CCCN=C(N)N)NC(=O)[C@@H](NC(=O)[C@H](Cc1ccccc1)NC(=O)[C@@H](NC(=O)[C@@H](N)CS)[C@@H](C)O)C(C)C)[C@@H](C)O)C(=O)N[C@@H](Cc1ccccc1)C(=O)N[C@@H](CS)C(=O)N[C@@H](CCCCN)C(=O)N[C@@H](CCC(=O)O)C(=O)N[C@@H](Cc1c[nH]cn1)C(=O)N[C@@H](CCC(N)=O)C(=O)N[C@@H](Cc1ccccc1)C(=O)O (H-CTFVRTHIFCKEHQF-OH) | Dose-dependent effect | Activity [4]: Active; Activity [5]: Dose-dependent effect
10 | H-FNHKKRLLHPSLFPR-OH |  | Activity [4]: inactive; Activity [5]: inactive
11 | H-FCKEH-OH | inactive | 
12 | H-HIFCK-OH | inactive | 
13 | H-KEHQF-OH | inactive | Activity [5]: inactive
14 | H-HESNDCTFV-OH |  | Activity [4]: inactive
